Results: patent US11000033B2, “Ketone or oxime compound, and herbicide” (NISSAN CHEMICAL CORPORATION, priority 2014, dated 2021)

Experiments:
Type in all cases: in vivo
Stellaria media = test: Test Example 4: herbicidal effect by soil treatment (symbol P); settings: for Herbicidal effect grade, P: Stellaria media: application herbicide amount 320 g/ha
Procedure, shortened: (§1)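 Seeds were sown in sterilized diluvial soil, covered with about 1.5 cm of soil, and the soil surface was sprayed with a water-diluted emulsion of the compound at a predetermined rate. Plants grew in a greenhouse at 25° C. to 30° C.; effects were scored visually 3 weeks after application.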

[1] = test system: Echinochloa crus-galli var. crus-galli; test: Test Example 3: herbicidal effect by foliage application, Wagner pot (symbol H); settings: for H (Echinochloa crus-galli var. crus-galli) herbicidal effect grade: Table 24
Procedure, shortened: (§2)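 Herbicidal activity was rated three weeks after a foliar spray of diluted emulsion concentrate, applied at a predetermined dose to plants grown for 14 days from seed in waterlogged alluvial soil within a 25–30 °C greenhouse.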

Alopecurus myosuroides = test: Test Example 4: herbicidal effect by soil treatment (symbol J); settings: for Herbicidal effect grade, J: Alopecurus myosuroides: application herbicide amount 320 g/ha
Procedure, shortened: as §1

Apera spica-venti [2] = test: Test Example 5: herbicidal effect by foliage application, plastic box (symbol L); settings: 3 weeks after application
Procedure, shortened: (§3)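 Visual herbicidal score, taken three weeks post-application, of seedlings sprayed on the foliage with water-diluted emulsion at a predetermined amount; plants were 14 days old, greenhouse-raised at 25° C. to 30° C.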

Cyperus difformis = test: Test Example 3: herbicidal effect by foliage application, Wagner pot (symbol E); settings: for E herbicidal effect grade: Table 24
Procedure, shortened: as §2

Amaranthus retroflexus = test: Test Example 4: herbicidal effect by soil treatment (symbol N); settings: for Herbicidal effect grade, N: Amaranthus retroflexus: application herbicide amount 320 g/ha
Procedure, shortened: as §1

Leptochloa chinensis = test: Test Example 3: herbicidal effect by foliage application, Wagner pot (symbol D); settings: for D (Leptochloa chinensis) herbicidal effect grade: Table 24
Procedure, shortened: as §2

transplanted rice plant = test: Test Example 1: effect on crop, application before weed generation in submerged conditions (symbol a)
Procedure, shortened: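 Alluvial soil pots flooded to 4 cm water, sown with Echinochloa oryzacola, Scirpus juncoides and Monochoria vaginalis, then transplanted with 2.5 leaf stage rice seedlings; pre-emergence application. Greenhouse 25° C. to 30° C.; scored 0–5 by herbicidal ratio 3 weeks after application.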

soybean [3] = test: Test Example 5: effect on crop by foliage application, plastic box (symbol d); settings: 3 weeks after application
Procedure, shortened: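 Soil: sterilized diluvial. Container: plastic box, 21 × 13 cm, 7 cm deep. Sowing: spot-like, ~1.5 cm cover. Growth: greenhouse, 25° C. to 30° C.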

Setaria viridis = test: Test Example 5: herbicidal effect by foliage application, plastic box (symbol G); settings: 3 weeks after application
Procedure, shortened: as §3

Abutilon theophrasti = test: Test Example 5: herbicidal effect by foliage application, plastic box (symbol M); settings: 3 weeks after application
Procedure, shortened: as §3

Veronica persica = test: Test Example 4: herbicidal effect by soil treatment (symbol R); settings: for Herbicidal effect grade, R: Veronica persica: application herbicide amount 320 g/ha
Procedure, shortened: as §1

Apera spica-venti [4] = test: Test Example 4: herbicidal effect by soil treatment (symbol L); settings: for Herbicidal effect grade, L: Apera spica-venti: application herbicide amount 320 g/ha
Procedure, shortened: as §1

[5] = test system: Echinochloa crus-galli var. crus-galli; test: Test Example 5: herbicidal effect by foliage application, plastic box (symbol H); settings: 3 weeks after application
Procedure, shortened: as §3

soybean [6] = test: Test Example 4: effect on crop by soil treatment (symbol d); settings: for Effect on crop grade, d: soybean: application herbicide amount 320 g/ha
Procedure, shortened: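 Grown at 25° C. to 30° C. in a greenhouse, the crops came from seed sown spot-wise in sterilized diluvial soil under roughly 1.5 cm of covering soil.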

[7] = application herbicide amount 320 g/ha
[8] = application herbicide amount 102 g/ha

Row | Compound | Herbicidal effect grade, P: Stellaria media (Stellaria media) | H (Echinochloa crus-galli var. crus-galli) herbicidal effect grade [1, 7] | Herbicidal effect grade, J: Alopecurus myosuroides (Alopecurus myosuroides) | L: Apera spica-venti, herbicidal effect grade (Apera spica-venti [2]; 320 g/ha) | E herbicidal effect grade (Cyperus difformis; [7]) | Herbicidal effect grade, N: Amaranthus retroflexus (Amaranthus retroflexus) | D (Leptochloa chinensis) herbicidal effect grade (Leptochloa chinensis; [7]) | a (transplanted rice plant) effect on crop grade (transplanted rice plant; [7]) | d: soybean, effect on crop grade (soybean [3]; 320 g/ha) | G: Setaria viridis, herbicidal effect grade (Setaria viridis; 320 g/ha) | M: Abutilon theophrasti, herbicidal effect grade (Abutilon theophrasti; 320 g/ha) | Herbicidal effect grade, R: Veronica persica (Veronica persica) | Herbicidal effect grade, L: Apera spica-venti (Apera spica-venti [4]) | H: Echinochloa crus-galli var. crus-galli, herbicidal effect grade ([5]; 320 g/ha) | Effect on crop grade, d: soybean (soybean [6]) | other results
1 | CC#Cc1cc(C)c(C2=C(O)CC(CC(=NOCCOC)C3CC3)C2=O)c(C)c1 (stereo not drawn) [9-021] | 0 (Herbicidal ratio of 5% or lower (almost no effect)) | 5 (Herbicidal ratio of 90% or more (almost completely withered)) | 5 (Herbicidal ratio of 90% or more (almost completely withered)) | 5 (Herbicidal ratio of 90% or more (almost completely withered)) | 5 (Herbicidal ratio of 90% or more (almost completely withered)) | 0 (Herbicidal ratio of 5% or lower (almost no effect)) | 5 (Herbicidal ratio of 90% or more (almost completely withered)) | 5 (Herbicidal ratio of 90% or more (almost completely withered)) | 1 (Herbicidal ratio of 5% or higher and lower than 20%) | 5 (Herbicidal ratio of 90% or more (almost completely withered)) | 2 (Herbicidal ratio of 20% or higher and lower than 40%) | 3 (Herbicidal ratio of 40% or higher and lower than 70%) | 5 (Herbicidal ratio of 90% or more (almost completely withered)) | 5 (Herbicidal ratio of 90% or more (almost completely withered)) | 0 (Herbicidal ratio of 5% or lower (almost no effect)) | 
2 | CC(CC1CC(O)=C(c2c(C)cc(-c3ccc(Cl)cc3)cc2C)C1=O)=NOCC(F)(F)F (stereo not drawn) [9-024] | 4 (Herbicidal ratio of 70% or higher and lower than 90%) | 5 (Herbicidal ratio of 90% or more (almost completely withered)) | 5 (Herbicidal ratio of 90% or more (almost completely withered)) | 5 (Herbicidal ratio of 90% or more (almost completely withered)) | 5 (Herbicidal ratio of 90% or more (almost completely withered)) | 3 (Herbicidal ratio of 40% or higher and lower than 70%) | 5 (Herbicidal ratio of 90% or more (almost completely withered)) | 5 (Herbicidal ratio of 90% or more (almost completely withered)) | 0 (Herbicidal ratio of 5% or lower (almost no effect)) | 5 (Herbicidal ratio of 90% or more (almost completely withered)) | 3 (Herbicidal ratio of 40% or higher and lower than 70%) | 4 (Herbicidal ratio of 70% or higher and lower than 90%) | 5 (Herbicidal ratio of 90% or more (almost completely withered)) | 5 (Herbicidal ratio of 90% or more (almost completely withered)) | 0 (Herbicidal ratio of 5% or lower (almost no effect)) | 
3 | CC(=O)CC1CC(O)=C(c2c(C)cc(C)cc2C)C1=O (stereo not drawn) [2-001, 3-hydroxy-2-mesityl-5-(2-oxopropyl)cyclopent-2-enone] |  |  |  |  |  |  |  |  |  |  |  |  |  |  |  | P: Stellaria media, herbicidal effect grade (Stellaria media; 102 g/ha): 0 (Herbicidal ratio of 5% or lower (almost no effect)); herbicidal effect on H (Echinochloa crus-galli var. crus-galli), grade 0-5 [1, 8]: 5 (Herbicidal ratio of 90% or more (almost completely withered)); J: Alopecurus myosuroides, herbicidal effect grade (Alopecurus myosuroides; 102 g/ha): 4 (Herbicidal ratio of 70% or higher and lower than 90%); L: Apera spica-venti, herbicidal effect grade (Apera spica-venti [2]; 102 g/ha): 4 (Herbicidal ratio of 70% or higher and lower than 90%); herbicidal effect on E, grade 0-5 (Cyperus difformis; [8]): 5 (Herbicidal ratio of 90% or more (almost completely withered)); N: Amaranthus retroflexus, herbicidal effect grade (Amaranthus retroflexus; 102 g/ha): 1 (Herbicidal ratio of 5% or higher and lower than 20%); herbicidal effect on D (Leptochloa chinensis), grade 0-5 (Leptochloa chinensis; [8]): 5 (Herbicidal ratio of 90% or more (almost completely withered)); Effect grade on crop, a: transplanted rice plant (transplanted rice plant; [8]): 4 (Herbicidal ratio of 70% or higher and lower than 90%); d: soybean, effect on crop grade (soybean [3]; 102 g/ha): 0 (Herbicidal ratio of 5% or lower (almost no effect)); G: Setaria viridis, herbicidal effect grade (Setaria viridis; 102 g/ha): 4 (Herbicidal ratio of 70% or higher and lower than 90%); M: Abutilon theophrasti, herbicidal effect grade (Abutilon theophrasti; 102 g/ha): 1 (Herbicidal ratio of 5% or higher and lower than 20%); R: Veronica persica, herbicidal effect grade (Veronica persica; 102 g/ha): 0 (Herbicidal ratio of 5% or lower (almost no effect)); L: Apera spica-venti, herbicidal effect grade (Apera spica-venti [4]; 102 g/ha): 2 (Herbicidal ratio of 20% or higher and lower than 40%); H: Echinochloa crus-galli var. crus-galli, herbicidal effect grade ([5]; 102 g/ha): 5 (Herbicidal ratio of 90% or more (almost completely withered)); d: soybean, effect grade on crop (soybean [6]; 102 g/ha): 0 (Herbicidal ratio of 5% or lower (almost no effect))
4 | CON=C(C)CC1CC(OS(=O)(=O)N(C)C)=C(c2c(C)cc(C)cc2C)C1=O (stereo not drawn) [1-122] |  |  |  |  |  |  |  |  |  |  |  |  |  |  |  | P: Stellaria media, herbicidal effect grade (Stellaria media; 320 g/ha): 0 (Herbicidal ratio of 5% or lower (almost no effect)); herbicidal effect on H (Echinochloa crus-galli var. crus-galli), grade 0-5 [1, 7]: 5 (Herbicidal ratio of 90% or more (almost completely withered)); J: Alopecurus myosuroides, herbicidal effect grade (Alopecurus myosuroides; 320 g/ha): 5 (Herbicidal ratio of 90% or more (almost completely withered)); L: Apera spica-venti, herbicidal effect (criteria 0-5) (Apera spica-venti [2]; 320 g/ha): 5 (Herbicidal ratio of 90% or more (almost completely withered)); herbicidal effect on E, grade 0-5 (Cyperus difformis; [7]): 5 (Herbicidal ratio of 90% or more (almost completely withered)); N: Amaranthus retroflexus, herbicidal effect grade (Amaranthus retroflexus; 320 g/ha): 0 (Herbicidal ratio of 5% or lower (almost no effect)); herbicidal effect on D (Leptochloa chinensis), grade 0-5 (Leptochloa chinensis; [7]): 5 (Herbicidal ratio of 90% or more (almost completely withered)); Effect grade on crop, a: transplanted rice plant (transplanted rice plant; [7]): 5 (Herbicidal ratio of 90% or more (almost completely withered)); d: soybean, effect on crop (criteria 0-5) (soybean [3]; 320 g/ha): 4 (Herbicidal ratio of 70% or higher and lower than 90%); G: Setaria viridis, herbicidal effect (criteria 0-5) (Setaria viridis; 320 g/ha): 5 (Herbicidal ratio of 90% or more (almost completely withered)); M: Abutilon theophrasti, herbicidal effect (criteria 0-5) (Abutilon theophrasti; 320 g/ha): 4 (Herbicidal ratio of 70% or higher and lower than 90%); R: Veronica persica, herbicidal effect grade (Veronica persica; 320 g/ha): 0 (Herbicidal ratio of 5% or lower (almost no effect)); L: Apera spica-venti, herbicidal effect grade (Apera spica-venti [4]; 320 g/ha): 1 (Herbicidal ratio of 5% or higher and lower than 20%); H: Echinochloa crus-galli var. crus-galli, herbicidal effect (criteria 0-5) ([5]; 320 g/ha): 5 (Herbicidal ratio of 90% or more (almost completely withered)); d: soybean, effect grade on crop (soybean [6]; 320 g/ha): 0 (Herbicidal ratio of 5% or lower (almost no effect))
5 | CON=C(CC1CC(O)=C(c2c(C)cc(-n3cc(Cl)cn3)cc2C)C1=O)C1CC1 (stereo not drawn) [9-007] | 0 (Herbicidal ratio of 5% or lower (almost no effect)) | 5 (Herbicidal ratio of 90% or more (almost completely withered)) | 5 (Herbicidal ratio of 90% or more (almost completely withered)) | 5 (Herbicidal ratio of 90% or more (almost completely withered)) | 5 (Herbicidal ratio of 90% or more (almost completely withered)) | 0 (Herbicidal ratio of 5% or lower (almost no effect)) | 5 (Herbicidal ratio of 90% or more (almost completely withered)) | 5 (Herbicidal ratio of 90% or more (almost completely withered)) | 0 (Herbicidal ratio of 5% or lower (almost no effect)) | 5 (Herbicidal ratio of 90% or more (almost completely withered)) | 0 (Herbicidal ratio of 5% or lower (almost no effect)) | 0 (Herbicidal ratio of 5% or lower (almost no effect)) | 5 (Herbicidal ratio of 90% or more (almost completely withered)) | 5 (Herbicidal ratio of 90% or more (almost completely withered)) | 0 (Herbicidal ratio of 5% or lower (almost no effect)) | 
